Measured values reported in patent US9868716B2, “Method for preventing and/or treating a subject suffering from asthma” (Hong Kong Baptist University, priority 2014, dated 2018).

Columns and labels:
Syk [1] = target: T1, Syk (Mus musculus, UniProt P48025); test: Immunoprecipitation of Syk phosphorylation in IgE/DNP-HSA-stimulated murine mast cells; format: cell-based, mice; details: murine BMMC, N7 1 hour, then antigen 5 minutes; FIG. 1a
Description: (§1) Bone marrow-derived mast cells (BMMC) of mice were separated from BALB/c murine marrow and were cultured in RPMI1640 liquid containing IL-3, 10% of calf serum, 100 U/ml of penicillin and 100 μg/ml of streptomycin for 6 weeks. Two markers c-kit and FceRI on cell membranes were detected by using flow cytometric analysis. When double-positive cells detected, having both markers, have exceeded 95%, the cultured cells can be used for the experiment.
(§2) Mast cells were pre-treated with IgE overnight, and were washed by PBS thrice. After re-suspended with medium, they were treated with different concentrations of Nujiangexanthone A for 1 hour. Dinitrophenyl human serum albumin (DNP-HSA) was used to treat the cells for 5 minutes. A/G agarose was added into the cell lysates and the mixtures were rotated at a rotator for 1 hour. Antibodies of Syk, Fyn and Lyn were added, and the mixtures were rotated overnight. On the following day, PBS was used to wash the complex of magnetic beads, antibody and protein for 5 times. A Western Blot loading dye was added into the complex and the mixtures were boiled for 5 minutes. […]
(§3) The results of FIG. 1a are obtained by pretreating the antibody-treated mast cells with N7 and Src family inhibitor PP2 for 1 hour and then treating the cells with antigens for 5 minutes. […] The downstream signal pathways of Syk including MAPKs, NF-kB and AP-1 were then analyzed by Western Blot.

Fyn [2] = test: Immunoprecipitation of Fyn phosphorylation in IgE/DNP-HSA-stimulated murine mast cells; format: cell-based, mice; details: murine BMMC, N7 1 hour, then antigen 5 minutes; FIG. 1a
Description: as §1, §2, §3

Lyn = test: Immunoprecipitation of Lyn phosphorylation in IgE/DNP-HSA-stimulated murine mast cells; format: cell-based, mice; details: murine BMMC, N7 1 hour, then antigen 5 minutes; FIG. 1a
Description: as §1, §2, §3

[3] = test system: downstream signal pathways of Syk including MAPKs, NF-kB and AP-1; test: Western Blot of downstream signaling pathways of Syk in murine mast cells; format: cell-based, mice; details: murine BMMC, FIG. 1b
Description: as §1
Cells were treated with Nujiangexanthone A (N7) in corresponding concentrations for 5, 15 and 30 minutes. The samples were collected and lysed. The samples were then separated by 8% gel in sodium dodecyl sulfate polyacrylaminde gel electrophoresis (SDS-PAGE) and transferred to polyvinylidene fluoride (PVDF) membrane. The following antibodies were used to analyze the samples: ERK, JNK, p38, IKK, IkBa, NF-kB and so forth. If the compound is found to interfere with the expression and phosphorylation of the target proteins, a corresponding specific inhibitor may be used to conduct a comparative analysis.
The results of FIG. 1a are obtained by pretreating the antibody-treated mast cells with N7 and Src family inhibitor PP2 for 1 hour and then treating the cells with antigens for 5 minutes. Phosphorylation of Syk, Fyn and Lyn were then examined by immunoprecipitation. The results of FIG. 1b are obtained by pretreating the antibody-treated mast cells with N7 and Src family inhibitor PP2 for one hour and then treating with antigens for 15 minutes. The downstream signal pathways of Syk including MAPKs, NF-kB and AP-1 were then analyzed by Western Blot.

murine spleen cells = test: ELISA of cytokines in spleen cells of asthma mice; format: in vivo; details: spleen cells treated with OVA for 3 days, ELISA (IL-4, IL-5, IL-13, IFNγ); FIG. 2a
Description: (§4) Lymph nodes and spleen of mice were collected. The collected tissues were respectively grinded, counted and cultivated. The cultured tissues were stimulated with PMA and ionomycin for 48 hours. The supernatant and the cells were then collected for analysis. The supernatant was used for examining various cytokines, and the cells were used for measuring expressions of various T cell specific proteins by Western blot.
(§5) To obtain the data in FIG. 2a, murine spleen cells were grinded and treated with OVA for 3 days, and then the supernatants of the cell mixtures were collected for ELISA analysis. […] As shown in FIG. 2b and FIG. 2c, the signal transduction proteins in spleen cells were detected. According to the experimental results, N7 inhibits the phosphorylation of Syk in spleen cells of mice having asthma.

Zap70 = test: Western Blot of phosphorylated Zap70 in spleen cells of asthma mice; format: in vivo; details: FIG. 2b, 2c
Description: as §4, §5

Stat6 = test: Western Blot of phosphorylated Stat6 in spleen cells of asthma mice; format: in vivo; details: FIG. 2b, 2c
Description: as §4, §5

GATA3 = test: Western Blot of GATA3 in spleen cells of asthma mice; format: in vivo; details: FIG. 2b, 2c
Description: as §4, §5

T-bet = test: Western Blot of T-bet in spleen cells of asthma mice; format: in vivo; details: FIG. 2b, 2c
Description: as §4, §5

[4] = test system: Balb/c mice, asthma animal model; test: OVA asthma animal model; format: in vivo
Description: (§6) Balb/c mice of SPF grade were selected for establishing an asthma animal model. With reference to FIG. 3a, ovalalbumin (OVA) dissolved in PBS with aluminum hydroxide gel was intraperitoneally injected to the mice to trigger systemic allergic responses, i.e. OVA sensitization. Then, atomized OVA was given to stimulate or challenge respiratory tracts of the mice. As such, a control group was prepared. By using the similar approach, treatment groups with an administration of N7 in different concentrations as well as a positive control group with an administration of dexamethasone were established. Also, a further control group of PBS was established by using same volume of PBS to replace OVA and using the PBS to replace the atomized OVA.
(§7) Symptoms of the mice were recorded during the test. Peripheral blood of the mice was collected before the end of the test so as to measure the release of IgE. Airway lavages were collected and the supernatants thereof were tested to measure the release of various cytokines. Cells were counted after being fixed and stained. The effect of Nujiangexanthone A on different types of immune cells was studied.

Syk [5] = target: T1, Syk; test: Immunohistochemistry of p-Syk in lung tissues of asthma model mice; format: in vivo; details: FIG. 3d
Description: as §6, §7

PBMC of asthma patients = test: qPCR of cytokines in PBMC of asthma patients; format: cell-based, human; details: mRNA by qPCR, FIG. 4
Description: Blood samples were collected from normal (healthy) people and people with asthma Peripheral blood mononuclear cells (PBMC) were isolated. By using Ficoll-density method, the effect of Nujiangexanthone A on the release of various cytokines in the isolated PBMCs was measured by qPCR.

Syk [6] = test: Western blot of Syk phosphorylation in PMA/ionomycin-treated Jurkat cells; format: cell-based, Human; details: N7 1 hour, PMA and ionomycin 15 minutes, FIG. 5a
Description: (§8) Jurkat T cells were cultured in RPMI1640 containing 10% fetal calf serum, 100 U/ml of penicillin and 100 μg/ml of streptomycin. The cells were passed once every two days with fresh medium. After pretreating the cells with a medicament, PMA and ionomycin were used to treat the cells at different time points. After the treatments, the cells were collected for biomarker measurements.
(§9) Jurkat T cells culture: in a safe range of concentrations, cells were treated with Nujiangexanthone A in corresponding concentrations for 5, 15 and 30 minutes. The samples were collected and lysed. The samples were then separated by 8% gel in SDS-PAGE and transferred to PVDF membrane. The following antibodies were used to analyze the samples: ERK, JNK, p38, IKK, IkBa, NF-kB and so forth. If the compound is found to interfere with the expression and phosphorylation of the target proteins, a corresponding specific inhibitor may be used to conduct a comparative analysis.
(§10) In one test, Jurkat cells were pretreated with N7 and Src family inhibitor PP2 for 1 hour and then co-treated with PMA and ionomycin for 15 minutes. Then, a plurality of proteins of T cells signaling transduction pathways were measured by Western blot.

Fyn [7] = test: Western blot of Fyn phosphorylation in PMA/ionomycin-treated Jurkat cells; format: cell-based, Human; details: N7 1 hour, PMA and ionomycin 15 minutes, FIG. 5a
Description: as §8, §9, §10

Lck = test: Western blot of Lck phosphorylation in PMA/ionomycin-treated Jurkat cells; format: cell-based, Human; details: N7 1 hour, PMA and ionomycin 15 minutes, FIG. 5a
Description: as §8, §9, §10

Murine BMMCs = test: Activation of murine mast cells (cytokines, degranulation, Ca2+, LTC4); format: cell-based, BALB/c mice; details: BMMC
Description: Murine BMMCs were isolated from BALB/c murine marrow and were cultured in a RPMI1640 medium containing IL-3, 10% of calf serum, 100 U/ml of penicillin and 100 μg/ml of streptomycin for 6 weeks. Two markers c-kit and FceRI on cell membranes were detected by using flow cytometric analysis. When double-positive cells detected, having both markers, have exceeded 95%, the cultured cells can be used for the experiment.
IgE mast cells were pretreated with IgE overnight and washed by PBS thrice. After re-suspended with medium, they were treated with different concentrations of Nujiangexanthone A for 1 hour. DNP-HAS or antigen was then used to treat the cells for 6 hours. The supernatants were collected for measurement. The amounts of TNF-α and IL-6 were measured by an ELISA kit.
IgE mast cells were pretreated with IgE overnight and washed by PBS thrice. After re-suspended with medium, they were treated with different concentrations of Nujiangexanthone A for 1 hour. DNP-HAS or antigen was then used to treat the cells for 15 minutes. The supernatants were collected for measurement. The amounts of LTC4 and Ca^2+ as well as the degranulation response were measured by an ELISA kit.
The amount of b-Hex was measured to evaluate the degranulation response.

lung tissue = test: Cytokines in lung tissue of asthma animal models; format: in vivo; details: asthma model mice; FIG. 7
Description: as §6
Some portions of lung tissue of the animal models were collected to evaluate lung inflammatory status. A portion of the collected lung tissue was isolated to extract RNA, and another portion of the lung tissue was grinded and digested for cytokines measurements.

Syk [8] = target: T1, Syk; test: Western Blot of phosphorylated Syk in spleen cells of asthma mice; format: in vivo; parameters: from tissue; host or cells: mouse spleen cells; details: spleen cells of mice having asthma; FIG. 2b, 2c
Description: as §4, §5

[9] = N7 1 hour, DNP-HAS 15 minutes, dose-dependent, FIG. 6
[10] = N7 1 hour, DNP-HAS 6 hours, ELISA, dose-dependent, FIG. 6

T1 sequence (P48025 whole entry): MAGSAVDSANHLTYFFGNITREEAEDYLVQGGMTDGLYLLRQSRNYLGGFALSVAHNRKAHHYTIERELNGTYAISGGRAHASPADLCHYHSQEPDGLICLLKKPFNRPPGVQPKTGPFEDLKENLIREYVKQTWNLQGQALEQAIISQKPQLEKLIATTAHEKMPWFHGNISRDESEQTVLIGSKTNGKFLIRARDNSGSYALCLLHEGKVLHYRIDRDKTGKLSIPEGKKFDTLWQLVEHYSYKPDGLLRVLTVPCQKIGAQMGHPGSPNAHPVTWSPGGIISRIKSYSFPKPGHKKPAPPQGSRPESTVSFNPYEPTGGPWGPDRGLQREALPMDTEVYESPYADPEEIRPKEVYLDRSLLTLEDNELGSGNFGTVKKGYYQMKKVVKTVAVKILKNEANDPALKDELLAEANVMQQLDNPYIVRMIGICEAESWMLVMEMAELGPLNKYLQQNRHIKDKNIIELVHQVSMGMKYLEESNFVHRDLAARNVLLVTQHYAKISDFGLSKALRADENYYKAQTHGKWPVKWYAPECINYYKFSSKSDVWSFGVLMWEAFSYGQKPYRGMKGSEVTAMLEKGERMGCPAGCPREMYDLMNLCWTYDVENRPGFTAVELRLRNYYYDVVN

COc1c(O)c(O)c2c(=O)c3c(CC=C(C)C)c(CC=C(C)C)c(O)c(O)c3oc2c1CC=C(C)C [Nujiangexanthone A]
phosphorylation of Syk (Syk [1]): selectively inhibits | phosphorylation of Fyn (Fyn [2]): does not affect | phosphorylation of Lyn (Lyn): does not affect | MAPK signaling pathways ([3]; N7 1 hour, antigen 15 minutes): inhibits | nuclear translocation of p65 ([3]; cytoplasm and nucleus separated): inhibits | production of transcription factors AP-1 (c-Jun+c-fos) [3]: is inhibited | production of cytokines in spleen tissues (murine spleen cells): inhibits | expression of phosphorylated Zap70 (Zap70): inhibits | expression of phosphorylated Stat6 (Stat6): inhibits | expression of GATA3 (GATA3): inhibits | expression of T-bet (T-bet): without altering | production of IgE in serum ([4]; OVA asthma mice, FIG. 3b): effectively inhibits | level of phosphorylated tyrosine in lung tissues ([4]; immunohistochemistry, FIG. 3d): inhibits | infiltrates in peribronchial inflammatory cell ([4]; lung tissues, H&E and PAS, FIG. 3c): decreases | level of phosphorylated Syk in lung tissues (Syk [5]): inhibits | expression of IFN′ (PBMC of asthma patients): does not inhibit | production of IL-5 (PBMC of asthma patients): inhibits | production of IL-13 (PBMC of asthma patients): inhibits | production of IL-17 (PBMC of asthma patients): inhibits | phosphorylation of Syk (Syk [6]): selectively inhibits | phosphorylation of Fyn (Fyn [7]): does not affect | phosphorylation of Lck (Lck): does not affect | concentration of calcium (Murine BMMCs; [9]): lower | degranulation of mast cells (b-Hex) (Murine BMMCs; [9]): inhibit | production of leukotriene LTC4 (Murine BMMCs; [9]): inhibit | production of IL-6 (Murine BMMCs; [10]): inhibit | production of TNF-α (Murine BMMCs; [10]): inhibit | cytotoxicity (Murine BMMCs; range of concentration used in the activation tests): no cytotoxicity | production of IFNγ in lung tissue (lung tissue): does not affect | production of IL-4 in lung tissue (lung tissue): inhibits | production of IL-5 in lung tissue (lung tissue): inhibits | production of IL-13 in lung tissue (lung tissue): inhibits | production of LTC4 in lung tissue (lung tissue): inhibits | production of PGD2 in lung tissue (lung tissue): inhibits | production of eotaxin in lung tissue (lung tissue): inhibits | expression of phosphorylated Syk (Syk [8]): inhibits
